Experimental data published in article PMC8842277, “Highly Antiproliferative Latonduine and Indolo[2,3-c]quinoline Derivatives: Complex Formation with Copper(II) Markedly Changes the Kinase Inhibitory Profile” (Journal of Medicinal Chemistry, 2022).

Key:
[1] = Stability in diluted blood serum by UV–vis; type: in vitro ADME, human; conditions: pH 7.40, diluted with HEPES or PBS
Protocol: Measurements with diluted serum show a more elaborate picture. […] The new band cannot be undoubtedly attributed to the liberation of ligand HL^8.
Aqueous stability of 4, 8, and HL^4 was investigated in phosphate-buffered saline (PBS) and 10 mM HEPES buffers and in three-times diluted blood serum (Sigma Aldrich, from human male AB plasma) at pH = 7.40. The concentration of the compounds was between 5 and 10 μM. Blood serum was filtered on a 1.25 μm polyethersulfone membrane syringe filter and diluted with 10 mM HEPES or PBS buffer.

[2] = system: HCT-116 colon carcinoma cells; test: MTT assay, 96 h; type: cell-based, human
Source text: The oncosuppressor protein p53 controls the cellular response to DNA strand breaks induced by cytotoxic drugs or by radiation.[58] The p53 protein may enhance cell chemosensitivity by promoting apoptosis via different mechanisms including activation of proapoptotic genes such as bax and repression of antiapoptotic genes such as bcl-2 or in contrast increase chemoresistance by promoting p21-mediated and p21-independent growth arrest and DNA repair and by activation of antiapoptotic genes such as bcl-x. There is strong evidence that the modulation of drug sensitivity by p53 may be both drug- and cell type-specific.[59] […] Accordingly, essential differences in chemosensitivity were observed between cells with wild-type p53 gene and cells with knocked out p53 gene by homologous recombination.[60]
Human colonic adenocarcinoma cell lines Colo 205 doxorubicin-sensitive (ATCC-CCL-222) and Colo 320/MDR-LRP multidrug resistant over-expressing ABCB1 (MDR1)-LRP (ATCC-CCL-220.1) were purchased from LGC Promochem, Teddington, UK. The cells were cultured in an RPMI 1640 medium supplemented with 10% heat-inactivated fetal bovine serum, 2 mM L-glutamine, 1 mM Na-pyruvate, and 10 mM HEPES. The semi-adherent human colon cancer cells were detached with Trypsin-Versene (EDTA) solution for 5 min at 37 °C. An MRC-5 human embryonal lung fibroblast cell line (ATCC CCL-171) was purchased from LGC Promochem, Teddington, UK. The cells were cultured in Eagle’s minimal essential medium (EMEM, containing 4.5 g L^–1 glucose) supplemented with a non-essential amino acid mixture, a selection of vitamins, and 10% heat-inactivated fetal bovine serum. The HCT-116 colon carcinoma cells and isogenic p53-knock-out subline were a gift of Prof. Bert Vogelstein from The Johns Hopkins Oncology Center. Cells were cultured in McCoy’s 5A medium supplemented with 10% heat-inactivated fetal bovine serum and 4 mM L-glutamine. All cell lines were incubated at 37 °C, in a 5% CO2, 95% air atmosphere.
MRC-5 non-cancerous human embryonic lung fibroblast and human colonic adeno-carcinoma cell lines (doxorubicin-sensitive Colo 205 and multidrug resistant Colo 320 colonic adenocarcinoma cells) were used to determine the effect of compounds on cell growth. The effects of increasing concentrations of compounds on cell growth were tested in 96-well flat-bottomed microtiter plates. The compounds were dissolved in DMSO and stock solutions of 10 mM were prepared. These were further diluted in the appropriate cell culture medium by twofold serial dilution starting from 100 or 10 μM for the compounds. The adherent human embryonal lung fibroblast cells were cultured in 96-well flat-bottomed microtiter plates using EMEM supplemented with 10% heat-inactivated fetal bovine serum. The density of the cells was adjusted to 1 × 10^4 cells in 100 μL per well, the cells were seeded for 24 h at 37 °C, 5% CO2, then the medium was removed from the plates containing the cells, and the dilutions of compounds previously made in a separate plate were added to the cells in 200 μL. In the case of the colonic adenocarcinoma cells, the twofold serial dilutions of compounds were prepared in 100 μL of RPMI 1640, horizontally. The semi-adherent colonic adenocarcinoma cells were treated with Trypsin-Versene (EDTA) solution. They were adjusted to a density of 1 × 10^4 cells in 100 μL of RPMI 1640 medium and were added to each well, with the exception of the medium control wells. […]

SMILES | Behaviour in blood serum diluted by factor 3 [1] | IC50 [2] [nM]
CC(=NNC1=NCc2ccccc2-c2c1[nH]c1ccc(Br)cc21)c1ccc(CN2CCOCC2)cn1.[Cl][Cu][Cl] [compound 4, CuCl2(HL^4)·0.5H2O] | a similar behavior was observed, even though changes were smaller | 130
CC(=NNc1nc2ccccc2c2c1[nH]c1ccc(Br)cc12)c1ccc(CN2CCOCC2)cn1.[Cl][Cu][Cl] [compound 8, CuCl2(HL^8)·H2O] | partial decomposition of the complex | 50
